US20190174812A1, “SOLID ORAL NICOTINE FORMULATION” (Fertin Pharma A/S, priority 2017, published 2019)

Details: nicotine concentration raised from 100 microgram/mL to 14,000 microgram/mL

CN1CCCC1c1cccnc1 (stereo not shown) [nicotine]
Decrease of permeability of nicotine across the buccal mucosa (factor): two
